pEC50: −log10 of the molar value. Bounds are passed on as bounds.

The first assay concerns the target T1, hGPR120 (Homo sapiens, UniProt Q5NUL3).
T1 construct: expressed in transfected cells; host or cells: CHO-K1
T1 sequence (Q5NUL3 1-361): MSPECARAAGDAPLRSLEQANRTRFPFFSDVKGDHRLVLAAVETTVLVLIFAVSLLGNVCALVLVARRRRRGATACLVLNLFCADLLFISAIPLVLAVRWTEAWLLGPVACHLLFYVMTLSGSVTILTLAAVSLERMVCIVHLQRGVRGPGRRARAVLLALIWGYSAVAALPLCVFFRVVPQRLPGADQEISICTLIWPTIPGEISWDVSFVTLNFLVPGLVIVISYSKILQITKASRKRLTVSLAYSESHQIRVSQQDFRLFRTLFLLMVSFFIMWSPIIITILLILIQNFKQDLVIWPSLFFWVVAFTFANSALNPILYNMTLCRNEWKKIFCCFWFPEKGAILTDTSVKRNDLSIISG
The assay can be described thus: Measurement of activity of GPR120 agonist (cell-based calcium fluorescence assay).
Details: not given
How it is done: CHO-K1 cells expressing Ga16 and hGPR120 were dispensed into each well of a 96-well plate (3×10^4 cells/100 μl/well) and then incubated in 5% CO2, 37° C. incubator for 18 hours. Each well was treated with 100 μl of Calcium 5 dye (Molecular Devices) solution including 2% DMSO and then incubated in 5% CO2, 37° C. incubator for 1 hour. Serially diluted GPR120 agonists were prepared to a final concentration of 0.5% DMSO in a 96-well plate.
Fluorescence increased by the serially diluted GPR120 agonists is calculated as a relative percent (%) value based on the fluorescence represented by the treatment of 1% DMSO only. […] The calculation of measurement was carried out by using statistical software (Prizm).
Activity is denoted based on the following criteria: […]
With `CC(C)Nc1ccccc1-c1cc(F)c(OCCCC(=O)O)c(F)c1` [Example 83, 4-[2,6-difluoro-4-[2-(isopropylamino)phenyl]phenoxy]butanoic Acid], the pEC50 is 5.70 to 6.70.

Still in this assay, the particulars now being: CHO-K1 cells expressing Ga16 and hGPR120, Calcium 5 dye fluorescence; activity class; read-out: EC50.
Regarding `CC(C)Oc1ccccc1-c1cc(F)c(OCCCC(=O)O)c(F)c1` [Example 52, 4-(3,5-difluoro-2′-isopropoxy-biphenyl-4-yloxy)-butyric acid], the negative-log EC50 (pEC50) is 5.70 to 6.70.

With `O=C(O)CCCOc1c(F)cc(-c2ccccc2OC2CCC2)cc1F` [Example 53, 4-(2′-cyclobutoxy-3,5-difluoro-biphenyl-4-yloxy)-butyric acid], the negative-log EC50 (pEC50) was greater than 6.70.

Regarding `O=C(O)CCCOc1c(F)cc(-c2ccccc2OCC2CC2)cc1F` [Example 54, 4-(2′-cyclopropylmethoxy-3,5-difluoro-biphenyl-4-yloxy)-butyric acid], the pEC50 is greater than 6.70.

For the compound `O=C(O)CCCOc1c(F)cc(-c2ccccc2OC2CCCC2)cc1F` [Example 55, 4-(2′-cyclopentyloxy-3,5-difluoro-biphenyl-4-yloxy)-butyric acid], the pEC50 is greater than 6.70.

`O=C(O)CCCOc1ccc(-c2ccccc2OC2CCCC2)cc1` [Example 56, 4-(2′-cyclopentyloxy-biphenyl-4-yloxy)-butyric acid]: the pEC50 is 5.70 to 6.70.

As to `CC(C)Oc1ccccc1-c1ccc(OCCCC(=O)O)cc1` [Example 57, 4-(2′-isopropoxy-biphenyl-4-yloxy)-butyric acid], the pEC50 is 5.70 to 6.70.

As to `O=C(O)CCCOc1ccc(-c2ccccc2OCC2CC2)cc1` [Example 58, 4-(2′-cyclopropylmethoxy-biphenyl-4-yloxy)-butyric acid], the pEC50 is 5.70 to 6.70.

`CC(CCOc1c(F)cc(-c2cccnc2SC2CCC2)cc1F)C(=O)O` (stereo not shown) [Example 59, 4-[4-(2-cyclobutylsulfanyl-pyridin-3-yl)-2,6-difluoro-phenoxy]-2-methyl-butyric acid]: the pEC50 is greater than 6.70.

For `O=C(O)C1CC1COc1c(F)cc(-c2cccnc2SC2CCC2)cc1F` (stereo not shown) [Example 60, 2-[4-(2-cyclobutylsulfanyl-pyridin-3-yl)-2,6-difluoro-phenoxymethyl]-cyclopropanecarboxylic acid], the negative logarithm of the EC50 (pEC50) was greater than 6.70.

As to `O=C(O)CCCOc1cc(F)c(-c2cccnc2SC2CCC2)cc1F` [Example 61, 4-[4-(2-cyclobutylsulfanyl-pyridin-3-yl)-2,5-difluoro-phenoxy]-butyric acid], the pEC50 was 5.70 to 6.70.

On to `O=C(O)CCCOc1cc(F)c(-c2cccc(SC3CCC3)n2)cc1F` [Example 62, 4-[4-(6-cyclobutylsulfanyl-pyridin-2-yl)-2,5-difluoro-phenoxy]-butyric acid], for which the negative logarithm of the EC50 (pEC50) was 5.70 to 6.70.

Consider `CC(C)(C)Sc1ncccc1-c1cc(F)c(OCCCC(=O)O)c(F)c1` [Example 63, 4-[4-(2-tert-butylsulfanyl-pyridin-3-yl)-2,6-difluoro-phenoxy]-butyric acid], for which the pEC50 was 4.70 to 5.70.

On to `CCCSc1ncccc1-c1cc(F)c(OCCCCCC(=O)O)c(F)c1` [Example 64, 6-[2,6-difluoro-4-(2-propylsulfanyl-3-pyridyl)phenoxy]hexanoic acid], for which the negative-log EC50 (pEC50) was greater than 6.70.

Regarding `CC(C)=Cc1cccc(-c2cc(F)c(OCCCC(=O)O)c(F)c2)n1` [Example 65, 4-{2,6-difluoro-4-[6-(2-methyl-propenyl)-pyridin-2-yl]-phenoxy}-butyric acid], the negative-log EC50 (pEC50) is greater than 6.70.

With `O=C(O)CCCOc1cc(F)c(-c2cccnc2SC2CCC2)c(F)c1` [Example 67, 4-[4-(2-cyclobutylsulfanyl-pyridin-3-yl)-3,5-difluoro-phenoxy]-butyric acid], the pEC50 is 5.70 to 6.70.

Regarding `O=C(O)CCCOc1c(F)cc(-c2cccnc2OC2CCOCC2)cc1F` [Example 68, 4-{2,6-difluoro-4-[2-(tetrahydro-pyran-4-yloxy)-pyridin-3-yl]-phenoxy}-butyric acid], the pEC50 is 5.70 to 6.70.

With `COCCOc1ncccc1-c1cc(F)c(OCCCC(=O)O)c(F)c1` [Example 71, 4-{2,6-difluoro-4-[2-(2-methoxy-ethoxy)-pyridin-3-yl]-phenoxy}-butyric acid], the pEC50 was 4.70 to 5.70.

With `O=C(O)CCCOc1c(F)cc(-c2cccnc2N2CCCC2)cc1F` [Example 72, 4-[2,6-difluoro-4-(2-pyrrolidin-1-yl-3-pyridyl)phenoxy]butanoic Acid], the pEC50 was 5.70 to 6.70.

Consider `O=C(O)CCCOc1c(F)cc(-c2cccnc2NC2CCCC2)cc1F` [Example 73, 4-[4-[2-(cyclopentylamino)-3-pyridyl]-2,6-difluoro-phenoxy]butanoic acid], for which the pEC50 was 5.70 to 6.70.

`O=C(O)CCCOc1c(F)cc(-c2cccnc2NCC2CC2)cc1F` [Example 74, 4-[4-[2-(cyclopropylmethylamino)-3-pyridyl]-2,6-difluoro-phenoxy]butanoic acid]: the pEC50 was 5.70 to 6.70.

`O=C(O)CCCOc1c(F)cc(-c2cccc(NCC3CC3)n2)cc1F` [Example 75, 4-[4-[6-(cyclopropylmethylamino)-2-pyridyl]-2,6-difluoro-phenoxy]butanoic acid]: the pEC50 was 5.70 to 6.70.

As for `CC(C)Nc1ncccc1-c1cc(F)c(OCCCC(=O)O)c(F)c1` [Example 76, 4-[2,6-difluoro-4-[2-(isopropylamino)-3-pyridyl]phenoxy]butanoic acid], the negative-log EC50 (pEC50) was 5.70 to 6.70.

For the compound `O=C(O)CCCOc1c(F)cc(-c2cccnc2NC2CC2)cc1F` [Example 77, 4-[4-[2-(cyclopropylamino)-3-pyridyl]-2,6-difluoro-phenoxy]butanoic acid], the negative logarithm of the EC50 (pEC50) is less than 4.70.

In the case of `CC(C)Nc1cccc(-c2cc(F)c(OCCCC(=O)O)c(F)c2)n1` [Example 78, 4-[2,6-difluoro-4-[6-(isopropylamino)-2-pyridyl]phenoxy]butanoic acid], the negative logarithm of the EC50 (pEC50) is 5.70 to 6.70.

Take `O=C(O)CCCOc1c(F)cc(-c2ccccc2NC2CCCC2)cc1F` [Example 79, 4-[4-[2-(cyclopentylamino)phenyl]-2,6-difluoro-phenoxy]butanoic acid]: the pEC50 was greater than 6.70.

With `O=C(O)CCCOc1c(F)cc(-c2cccc(NC3CCCC3)c2)cc1F` [Example 80, 4-[4-[3-(cyclopentylamino)phenyl]-2,6-difluoro-phenoxy]butanoic acid], the pEC50 was greater than 6.70.

Take `CCCNc1ccccc1-c1cc(F)c(OCCCC(=O)O)c(F)c1` [Example 81, 4-[2,6-difluoro-4-[2-(propylamino)phenyl]phenoxy]butanoic acid]: the pEC50 is greater than 6.70.

Turning to `O=C(O)CCCOc1c(F)cc(-c2ccccc2NCC2CC2)cc1F` [Example 82, 4-[4-[2-(cyclopropylmethylamino)phenyl]-2,6-difluoro-phenoxy]butanoic acid], the pEC50 was greater than 6.70.

Consider `O=C(O)CCCOc1ccc(-c2ccccc2NCC2CC2)cc1` [Example 85, 4-[4-[2-(cyclopropylmethylamino)phenyl]phenoxy]butanoic acid], for which the pEC50 was 5.70 to 6.70.

In the case of `CCCNc1ccccc1-c1ccc(OCCCC(=O)O)cc1` [Example 86, 4-[4-[2-(propylamino)phenyl]phenoxy]butanoic acid], the negative logarithm of the EC50 (pEC50) is 5.70 to 6.70.

On to `CC(C)Nc1ccccc1-c1ccc(OCCCC(=O)O)cc1` [Example 87, 4-[4-[2-(isopropylamino)phenyl]phenoxy]butanoic acid], for which the pEC50 is 5.70 to 6.70.

As for `O=C(O)CCCOc1ccc(-c2ccccc2NC2CCC2)cc1` [Example 88, 4-[4-[2-(cyclobutylamino)phenyl]phenoxy]butanoic acid], the pEC50 is 5.70 to 6.70.

Take `O=C(O)CCCOc1c(F)cc(-c2ccccc2NC2CCC2)cc1F` [Example 89, 4-[4-[2-(cyclobutylamino)phenyl]-2,6-difluoro-phenoxy]butanoic acid]: the pEC50 is greater than 6.70.

For `O=C(O)CCCOc1c(F)cc(-c2cccc(NCC3CC3)c2)cc1F` [Example 90, 4-[4-[3-(cyclopropylmethylamino)phenyl]-2,6-difluoro-phenoxy]butanoic acid], the pEC50 was greater than 6.70.

On to `CC(C)Nc1cccc(-c2cc(F)c(OCCCC(=O)O)c(F)c2)c1` [Example 91, 4-[2,6-difluoro-4-[3-(isopropylamino)phenyl]phenoxy]butanoic acid], for which the pEC50 is greater than 6.70.

Take `O=C(O)CCCOc1c(F)cc(-c2cccc(N3CCCC3)c2)cc1F` [Example 92, 4-[2,6-difluoro-4-(3-pyrrolidin-1-ylphenyl)phenoxy]butanoic acid]: the pEC50 was greater than 6.70.

Consider `CCCNc1cccc(-c2cc(F)c(OCCCC(=O)O)c(F)c2)c1` [Example 94, 4-[2,6-difluoro-4-[3-(propylamino)phenyl]phenoxy]butanoic acid], for which the pEC50 was 5.70 to 6.70.

As to `O=C(O)CCCOc1c(F)cc(-c2cc(Cl)ccc2NC2CCCC2)cc1F` [Example 95, 4-[4-[5-chloro-2-(cyclopentylamino)phenyl]-2,6-difluoro-phenoxy]butanoic acid], the pEC50 was 5.70 to 6.70.

Consider `O=C(O)CCCOc1c(F)cc(-c2cc(F)ccc2NC2CCCC2)cc1F` [Example 96, 4-[4-[2-(cyclopentylamino)-5-fluoro-phenyl]-2,6-difluoro-phenoxy]butanoic acid], for which the pEC50 is greater than 6.70.

Broadly, the pEC50 is the negative decadic logarithm of the EC50, by convention in mol/L.

For the origin of these results see US10221138B2, “Biaryl derivatives as GPR120 agonists” (LG CHEM, LTD., priority 2013, dated 2019).
